# pIC50: −log10 of the molar value.
# Columns and labels:
# [1] = test system: HCT-116; test: Cytotoxicity against human HCT-116 cells assessed as inhibition of cell growth incubated for 72 hrs by MTT assay; assay type: functional, cell-based; conditions: HCT-116, 72 h
# [2] = test system: HeLa; test: Cytotoxicity against human HeLa cells assessed as inhibition of cell growth by MTT assay; assay type: functional, cell-based
# [3] = test system: Clupea harengus; test: Binding affinity to Atlantic herring DNA assessed as binding constant by fluorescence based EtBr-UV absorption spectral analysis
# [4] = test system: Calf thymus DNA; test: Binding affinity to calf thymus DNA assessed as binding constant by fluorescence based EtBr-displacement based UV-Vis spectroscopic analysis; assay type: nucleic-acid assay; conditions: Bos taurus
# [5] = target: Salmon testes DNA; test: Binding affinity to salmon Testis DNA assessed as equilibrium binding constant by steady-state fluorescence spectroscopic analysis; conditions: Salmo salar
# [6] = test system: Staphylococcus aureus; test: Antibacterial activity against Staphylococcus aureus ATCC25923 assessed as inhibition of bacterial growth incubated for 24 hrs by two-fold serial dilution assay; assay type: functional
# [7] = test system: Staphylococcus aureus; test: Antibacterial activity against methicillin-resistant Staphylococcus aureus N315 assessed as inhibition of bacterial growth incubated for 24 hrs by two-fold serial dilution assay; assay type: functional
# [8] = test system: Bacillus subtilis; test: Antibacterial activity against Bacillus subtilis ATCC6633 assessed as inhibition of bacterial growth incubated for 24 hrs by two-fold serial dilution assay; assay type: functional
# [9] = test system: Micrococcus luteus; test: Antibacterial activity against Micrococcus luteus assessed as inhibition of bacterial growth incubated for 24 hrs by two-fold serial dilution assay; assay type: functional
# [10] = test system: Proteus; test: Antibacterial activity against Proteus ATCC13315 assessed as inhibition of bacterial growth incubated for 24 hrs by two-fold serial dilution assay; assay type: functional
# [11] = test system: Escherichia coli; test: Antibacterial activity against Escherichia coli JM109 assessed as inhibition of bacterial growth incubated for 24 hrs by two-fold serial dilution assay; assay type: functional
# [12] = test system: Pseudomonas aeruginosa; test: Antibacterial activity against Pseudomonas aeruginosa assessed as inhibition of bacterial growth incubated for 24 hrs by two-fold serial dilution assay; assay type: functional
# [13] = test system: Salmonella typhi; test: Antibacterial activity against Salmonella enterica subsp. enterica serovar Typhi assessed as inhibition of bacterial growth incubated for 24 hrs by two-fold serial dilution assay; assay type: functional
# [14] = test system: BGC-823; test: Antiproliferative activity against human BGC-823 cells assessed as inhibition of cell proliferation incubated for 24 hrs by MTT assay; assay type: functional, cell-based; conditions: BGC-823, 24 h
# [15] = test system: L02; test: Antiproliferative activity against human HL7702 cells assessed as inhibition of cell proliferation incubated for 24 hrs by MTT assay; assay type: functional, cell-based; conditions: L02, 24 h
# [16] = test system: MCF7; test: Antiproliferative activity against human MCF7 cells assessed as inhibition of cell proliferation incubated for 24 hrs by MTT assay; assay type: functional, cell-based; conditions: MCF7, 24 h
# [17] = test system: Jurkat; test: Antiproliferative activity against human Jurkat cells assessed as inhibition of cell proliferation incubated for 72 hrs by MTT assay; assay type: functional, cell-based
# [18] = test system: K562; test: Cytotoxicity against human K562 cells assessed as inhibition of cell growth incubated for 48 hrs by MTT assay; assay type: functional, cell-based; conditions: K562, 48 h
# [19] = test system: SMMC-7721; test: Cytotoxicity against human SMMC-7721 cells assessed as inhibition of cell growth incubated for 48 hrs by MTT assay; assay type: functional, cell-based; conditions: SMMC-7721, 48 h
# [20] = test system: HepG2; test: Cytotoxicity against human HepG2 cells assessed as inhibition of cell growth incubated for 48 hrs by MTT assay; assay type: functional, cell-based; conditions: HepG2, 48 h
# [21] = test system: HCT-116; test: Cytotoxicity against human HCT-116 cells assessed as inhibition of cell growth incubated for 48 hrs by MTT assay; assay type: functional, cell-based; conditions: HCT-116, 48 h
# [22] = test system: Calf thymus DNA; test: Binding affinity to calf thymus DNA assessed as DNA intercalation by measuring change in melting temperature by thermal denaturation assay; assay type: nucleic-acid assay; conditions: Bos taurus
compound,measurement,setting,value
O=C1c2cccc3cccc(c23)C(=O)N1CCCN(CCCN1C(=O)c2cccc3cccc(c23)C1=O)CCN(CCO)CCO,pIC50,[1],< 4.82
CN(C)CCN1C(=O)c2cccc3c2c(cc2nc(C(F)(F)F)c(C(F)(F)F)nc23)C1=O,pIC50,[2],5.42
NCCCNCCCCN1C(=O)c2cccc3cccc(c23)C1=O,Kb,[3],1.15 10^4/M
Cc1ccc(-c2cc[n+]3c(c2)-c2cccc[n+]2CC3)cc1,K,[4],2.8 10^6/M
O=C1c2cccc3cccc(c23)C(=O)N1CC[n+]1ccccc1,Kb,[5],2 10^4/M
O=C1c2cccc3c(Sc4nc5ccccc5n4Cc4ccccc4Cl)ccc(c23)C(=O)N1CCCCn1cncn1,MIC,[6],> 512 µg/mL
same,MIC,[7],> 512 µg/mL
same,MIC,[8],> 512 µg/mL
same,MIC,[9],> 512 µg/mL
same,MIC,[10],> 512 µg/mL
same,MIC,[11],> 512 µg/mL
same,MIC,[12],> 512 µg/mL
same,MIC,[13],> 512 µg/mL
O=C1c2cccc3c(Sc4nc5ccccc5n4Cc4cccc(F)c4)ccc(c23)C(=O)N1CCCCn1cncn1,MIC,[6],> 512 µg/mL
same,MIC,[7],> 512 µg/mL
same,MIC,[8],> 512 µg/mL
same,MIC,[9],> 512 µg/mL
same,MIC,[10],> 512 µg/mL
same,MIC,[11],> 512 µg/mL
same,MIC,[12],> 512 µg/mL
same,MIC,[13],> 512 µg/mL
Nc1ccc2c3c(cccc13)C(=O)N(CC[n+]1ccccc1)C2=O,Kb,[5],1.38 10^5/M
Nc1ccc2c3c(cccc13)C(=O)N(c1cccc(-c3cc[n+]4c(c3)-c3cccc[n+]3CC4)c1)C2=O,K,[4],2.3 10^6/M
NCCCCNCCCCN1C(=O)c2cccc3cccc(c23)C1=O,Kb,[3],1.15 10^4/M
O=C1c2cccc3cccc(c23)C(=O)N1CCCN(CCCN(CCO)CCO)CCCN1C(=O)c2cccc3cccc(c23)C1=O,pIC50,[1],6.09
O=C1c2cccc3c2c(cc2[nH]c(-c4c[nH]c5ccccc45)nc23)C(=O)N1Nc1ccccc1,pIC50,[14],6.15
same,pIC50,[15],6.15
same,pIC50,[16],6.15
O=C1c2cccc3cccc(c23)C(=O)N1CCNCc1ccccn1,pIC50,[17],5.25
CN(C)c1ccc2c3c(cccc13)C(=O)N(CCc1cc[n+](C)cc1)C2=O,Kb,[5],1.38 10^5/M
O=C1c2cccc3c(Sc4nc5ccccc5n4Cc4ccc(Cl)cc4)ccc(c23)C(=O)N1CCCCn1cncn1,MIC,[6],> 512 µg/mL
same,MIC,[7],> 512 µg/mL
same,MIC,[8],> 512 µg/mL
same,MIC,[9],> 512 µg/mL
same,MIC,[10],> 512 µg/mL
same,MIC,[11],> 512 µg/mL
same,MIC,[12],> 512 µg/mL
same,MIC,[13],> 512 µg/mL
CCCCCOC(=O)c1ccc2c3c(cccc13)C(=O)N(CCN(C)C)C2=O,pIC50,[18],< 4.30
same,pIC50,[19],< 4.30
same,pIC50,[20],< 4.30
same,pIC50,[21],< 4.30
O=C1c2cccc3cccc(c23)C(=O)N1CCCNCCCN(CCCl)CCCl,pIC50,[1],5.85
O=C1c2cccc3c2c(cc2[nH]c(-c4c[nH]c5ccccc45)nc23)C(=O)N1CCCO,pIC50,[14],6.15
same,pIC50,[15],6.15
same,pIC50,[16],6.15
O=C1c2cccc3cccc(c23)C(=O)N1CCCNCCCN(CCO)CCO,pIC50,[1],5.16
O=C1c2cccc3c(Sc4nc5ccccc5n4Cc4cccc(Cl)c4)ccc(c23)C(=O)N1CCCCn1cncn1,MIC,[6],> 512 µg/mL
same,MIC,[7],> 512 µg/mL
same,MIC,[8],> 512 µg/mL
same,MIC,[9],> 512 µg/mL
same,MIC,[10],> 512 µg/mL
same,MIC,[11],> 512 µg/mL
same,MIC,[12],> 512 µg/mL
same,MIC,[13],> 512 µg/mL
CN(C)CCCN1C(=O)c2cccc3c2c(cc2[nH]c(-c4c[nH]c5ccccc45)nc23)C1=O,pIC50,[14],6.15
same,pIC50,[15],6.15
same,pIC50,[16],6.15
CN(C)CCNCCCN1C(=O)c2cccc3cccc(c23)C1=O,Kb,[3],1.15 10^4/M
O=C1c2cccc3cccc(c23)C(=O)N1CCCNCCN(CCO)CCO,pIC50,[1],< 4.40
CCN(CC)CCN1C(=O)c2cccc3c2c(cc2[nH]c(-c4c[nH]c5ccccc45)nc23)C1=O,pIC50,[14],5.09
same,pIC50,[15],5.09
same,pIC50,[16],5.09
CCCOC(=O)c1ccc2c3c(cccc13)C(=O)N(CCN(C)C)C2=O,pIC50,[18],< 4.30
same,pIC50,[19],< 4.30
same,pIC50,[20],< 4.30
same,pIC50,[21],< 4.30
O=C1c2cccc3c(Sc4nc5ccccc5n4Cc4ccc(F)cc4)ccc(c23)C(=O)N1CCCCn1cncn1,MIC,[6],> 512 µg/mL
same,MIC,[7],> 512 µg/mL
same,MIC,[8],> 512 µg/mL
same,MIC,[9],> 512 µg/mL
same,MIC,[10],> 512 µg/mL
same,MIC,[11],> 512 µg/mL
same,MIC,[12],> 512 µg/mL
same,MIC,[13],> 512 µg/mL
NCCNCCCCCN1C(=O)c2cccc3cccc(c23)C1=O,Kb,[3],1.15 10^4/M
O=C1c2cccc3cccc(c23)C(=O)N1CCCCCC/N=C/c1ccccn1,pIC50,[17],5.25
O=C1c2cccc3cccc(c23)C(=O)N1CCCCNCc1ccccn1,pIC50,[17],5.25
NCCNCCCN1C(=O)c2cccc3cccc(c23)C1=O,Kb,[3],1.15 10^4/M
O=C1c2cccc3c(Sc4nc5ccccc5n4Cc4ccc(Cl)cc4Cl)ccc(c23)C(=O)N1CCCCn1c[n+](Cc2ccccc2Cl)cn1,MIC,[6],2 µg/mL
same,MIC,[7],2 µg/mL
same,MIC,[8],2 µg/mL
same,MIC,[9],2 µg/mL
same,MIC,[10],2 µg/mL
same,MIC,[11],2 µg/mL
same,MIC,[12],2 µg/mL
same,MIC,[13],2 µg/mL
O=C1c2cccc3cccc(c23)C(=O)N1CCCN(CCCN(CCCl)CCCl)CCCN1C(=O)c2cccc3cccc(c23)C1=O,pIC50,[1],6.46
O=C1c2cccc3cccc(c23)C(=O)N1CCCC/N=C/c1ccccn1,pIC50,[17],5.25
CCCCOC(=O)c1ccc2c3c(cccc13)C(=O)N(CCN(C)C)C2=O,pIC50,[18],< 4.30
same,pIC50,[19],< 4.30
same,pIC50,[20],< 4.30
same,pIC50,[21],< 4.30
CCCCCCCCNN1C(=O)c2cccc3c2c(cc2[nH]c(-c4c[nH]c5ccccc45)nc23)C1=O,pIC50,[14],6.15
same,pIC50,[15],6.15
same,pIC50,[16],6.15
CCOC(=O)c1ccc2c3c(cccc13)C(=O)N(CCN(C)C)C2=O,pIC50,[18],4.86
same,pIC50,[19],4.86
same,pIC50,[20],4.86
same,pIC50,[21],4.86
O=C1c2cccc3c(Sc4nc5ccccc5n4Cc4ccc(F)cc4F)ccc(c23)C(=O)N1CCCCn1cncn1,MIC,[6],> 512 µg/mL
same,MIC,[7],> 512 µg/mL
same,MIC,[8],> 512 µg/mL
same,MIC,[9],> 512 µg/mL
same,MIC,[10],> 512 µg/mL
same,MIC,[11],> 512 µg/mL
same,MIC,[12],> 512 µg/mL
same,MIC,[13],> 512 µg/mL
O=C1c2cccc3c([N+](=O)[O-])ccc(c23)C(=O)N1c1ccc(-c2cc[n+]3c(c2)-c2cccc[n+]2CC3)cc1,K,[4],1.7 10^7/M
NCCNCCCCN1C(=O)c2cccc3cccc(c23)C1=O,Kb,[3],1.15 10^4/M
COC(=O)c1ccc2c3c(cccc13)C(=O)N(CCN(C)C)C2=O,pIC50,[18],4.86
same,pIC50,[19],4.86
same,pIC50,[20],4.86
same,pIC50,[21],4.86
CCNN1C(=O)c2cccc3c2c(cc2[nH]c(-c4c[nH]c5ccccc45)nc23)C1=O,pIC50,[14],6.15
same,pIC50,[15],6.15
same,pIC50,[16],6.15
CN(C)CCN1C(=O)c2cccc3c2c(cc2nccnc23)C1=O,pIC50,[2],5.72
same,ΔTm,[22],3.9 °C
CN(C)CCN1C(=O)c2cccc3c2c(cc2[nH]c(-c4c[nH]c5ccccc45)nc23)C1=O,pIC50,[14],6.15
same,pIC50,[15],6.15
same,pIC50,[16],6.15
O=C1c2cccc3c2c(cc2[nH]c(-c4c[nH]c5ccccc45)nc23)C(=O)N1NCc1ccccc1,pIC50,[14],6.15
same,pIC50,[15],6.15
same,pIC50,[16],6.15
